Structures can show the parent of a compound that is named as a salt. Where two headings read alike, the source gives them in different places.
Columns and labels:
[1] = percutaneous permeability test using a Franz cell after electroporation, abdominal skin
Experimental: Calcein sodium salt was used as a model labeled drug at a concentration of 1 mM. The ingredients were stirred and solubilized to obtain the compositions for electroporation (solutions) of the present invention. The percutaneous absorption promotion actions of these compositions for electroporation were measured by percutaneous permeability test using a Franz cell. That is, a skin sample was collected from the abdomen of a hairless rat, and subcutaneous fat was removed from the sample. The skin sample was loaded in the Franz cell as a partition wall with its horny cell layer facing towards the donor side. The receiver side was filled with an isotonic phosphate-buffered saline (PBS). The donor side was filled with 3 mL of the aforementioned composition for electroporation of the present invention. The receiver side was stirred at 1200 rpm by using a star-head type stirrer. After the electroporation, 0.3 mL of the solution in the receiver side was serially collected in a time course and added with the same amount of isotonic phosphate-buffered saline (PBS) to examine the percutaneous permeability. […] The amount of calcein sodium salt was measured by a fluorometer. Further, as for the conditions of electroporation, ECM-830 produced by BTX was used, 10 pulses of 10 ms at 300 V was applied at intervals of 1 minute immediately after the drug administration, and then the power was turned off.
The same examination as in Example 1 was conducted by using various metal chlorides.
The same examination as in Example 1 was conducted by using trivalent metal ion chlorides. As for the electroporation conditions, 10 pulses of 10 ms at 300 V were applied at intervals of 1 second immediately after the drug administration. As the trivalent metal ion chlorides, iron chloride and aluminum chloride were used.
The same examination as in Example 1 was conducted by using FITC-dextran as a model labeled drug. As for the electroporation conditions, 10 pulses of 10 ms at 300 V were applied at intervals of 1 second immediately after the drug administration. As the FITC-dextran, FD4 (molecular weight: 4300), FD10 (molecular weight: 9600) and FD40 (molecular weight: 35600) were used.

[2] = percutaneous permeability test using a Franz cell after electroporation, dorsal skin; format: in vitro ADME, hairless rat
Excerpt: However, dorsal skin of a hairless rat was used as the skin sample. […] As the model labeled drugs, sodium dexamethasone phosphate (DEX.Na), ritodrine hydrochloride (RIT), dimemorfan phosphate (DIM), caffeine (CAF), azelastine hydrochloride (AZR), tipepidine hibenzate (TIP), benzoic acid (BA), phenytoin (PEN) and testosterone (TES) were used.

[Ba+2].[Cl-].[Cl-] [barium chloride]
absorption of calcein during electroporation ([1]; Example 9, various divalent metal chlorides added, FIG. 7): promoted the absorption of calcein

iron chloride
percutaneous absorption (calcein), trivalent metal ion chlorides vs calcium ions [1]: neither of the trivalent metal ions significantly promoted percutaneous absorption

CN1CCCC(n2nc(Cc3ccc(Cl)cc3)c3ccccc3c2=O)CC1 (stereo not drawn) [azelastine hydrochloride]
percutaneous absorption of the model labeled drug on addition of calcium ions [2]: significantly promoted percutaneous absorption

CN1CCCC(=C(c2cccs2)c2cccs2)C1.O=C(O)c1ccccc1C(=O)c1ccc(O)cc1 [tipepidine hibenzate]
percutaneous absorption of the model labeled drug on addition of calcium ions ([2]; Example 11, dorsal skin, addition of CaCl2, 10 pulses of 10 ms at 300 V at intervals of 1 second, FIG. 9): significantly promoted percutaneous absorption

[Cl][Al]([Cl])[Cl] [aluminum chloride]
percutaneous absorption (calcein), trivalent metal ion chlorides vs calcium ions [1]: neither of the trivalent metal ions significantly promoted percutaneous absorption

[Cl-].[K+] [potassium chloride]
percutaneous absorption promotion action (buprenorphine hydrochloride) ([1]; Example 8, sample of Example 4 with metal chloride changed, all 150 mM, buprenorphine hydrochloride 0.02% by weight, FIGS. 5 and 6): promoted percutaneous absorption

— patent US6878548B2, “Composition for use in electroporation” (Pola Chemical Industries Inc., priority 2001, dated 2005)
